Seven compounds from patent publication US11590134B2, “Aminopyrimidine amide autophagy inhibitors and methods of use thereof” (Deciphera Pharmaceuticals, LLC, priority 2019, dated 2023) can be followed below.

In assay [1] the target is T1, ULK1 kinase (Homo sapiens, UniProt O75385).
T1 construct: purchased Eurofins 14-959
T1 sequence (O75385 with tags, fused parts or gaps): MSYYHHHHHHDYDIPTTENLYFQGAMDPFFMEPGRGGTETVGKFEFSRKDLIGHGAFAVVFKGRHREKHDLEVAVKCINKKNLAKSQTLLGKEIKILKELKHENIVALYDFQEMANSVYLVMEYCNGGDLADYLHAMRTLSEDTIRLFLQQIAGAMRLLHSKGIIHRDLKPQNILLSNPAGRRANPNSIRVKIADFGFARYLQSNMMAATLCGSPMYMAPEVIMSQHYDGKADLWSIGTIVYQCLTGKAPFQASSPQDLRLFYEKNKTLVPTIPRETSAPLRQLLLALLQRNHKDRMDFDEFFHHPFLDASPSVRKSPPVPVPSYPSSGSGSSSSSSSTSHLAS
Nature of the assay: Biochemical assay for ULK1.2 (coupled pyruvate kinase/lactate dehydrogenase assay). The note with it: 19 nM ULK1 (residues 1-314), myelin basic protein substrate, 1 mM ATP. The procedure:
(§1) Activity of ULK1 kinase was determined spectroscopically using a coupled pyruvate kinase/lactate dehydrogenase assay that continuously monitors the ATP hydrolysis-dependent oxidation of NADH (e.g., Schindler et al. Science (2000) 289: 1938-1942). Assays were conducted in 384-well plates (100 uL final volume) using 19 nM ULK1 (Eurofins CAT #14-959), 0.25 mg/mL myelin basic protein, 1.5 units pyruvate kinase, 2.1 units lactate dehydrogenase, 1 mM phosphoenol pyruvate, 0.28 mM NADH and 1 mM ATP in assay buffer (100 mM Tris, pH 7.5, 15 mM MgCl2, 0.5 mM DTT, 0.1% octyl-glucoside, 0.002% (w/v) BSA, and 0.002% Triton X-100). Inhibition of ULK1 was measured by adding serial diluted test compound (final assay concentration of 1% DMSO). A decrease in absorption at 340 nm was monitored continuously for 6 hours at 30° C. on a multi-mode microplate reader (BioTek). The reaction rate was calculated using the 2-3 h time frame. The reaction rate at each concentration of compound was converted to percent inhibition using controls (i.e. reaction with no test compound and reaction with a known inhibitor) and IC50 values were calculated by fitting a four-parameter sigmoidal curve to the data using Prism (GraphPad software).

The target in assay [2] is T2, ULK2 kinase (Homo sapiens, UniProt Q8IYT8).
T2 construct: purchased Eurofins 14-772
Nature of the assay: Biochemical assay for ULK2 (coupled pyruvate kinase/lactate dehydrogenase assay). As to conditions: 9.7 nM ULK2 (residues 1-306), myelin basic protein substrate, 1 mM ATP; read-out: ULK2.2. The method, then: as §1, with “of ULK2” for “of ULK1”, “using 9.7” for “using 19”, “nM ULK2” for “nM ULK1”, “CAT #14-772),” for “CAT #14-959),”

The subject of assay [3] is ULK kinase substrate ATG13 (phospho-Serine 318 ATG13) in A549 cells. The assay is described as follows: pATG13 ELISA in mutant KRas A549 cells in combination with trametinib. Type of assay: cell-based. As to conditions: A549 (KRAS mutant) human lung cancer cells, with 250 nM trametinib, overnight. The method, then: (§2) A549 (KRAS mutant) human lung cancer cells (6,000 cells/well) were added to a 384-well tissue-culture treated plate in 50 μL of pre-warmed DMEM medium supplemented with 10% characterized fetal bovine serum (Invitrogen, Carlsbad, Calif.), 100 units/mL penicillin G, and 100 μg/mL streptomycin and allowed to grow overnight at 37° C., 5% CO2, and 95% humidity. The following day, 10 μL of media containing trametinib or DMSO as a control was added to wells. The final concentration of trametinib in wells was 250 nM. A dose response of a test compound (0.6 μL per well) was added. DMSO (0.6 μL) was added to control wells. The plate was briefly shaken to mix wells and then incubated at 37° C. overnight. The next day, the media was aspirated and cells were washed with Dulbecco's Phosphate Buffered Saline (Gibco). Cells were lysed using MPER lysis buffer (Pierce, Rockford, Ill.) containing Halt Phosphatase and Protease Inhibitors (Pierce, Rockford, Ill.) and Phosphatase inhibitor cocktail 2 (Sigma, St. Louis, Mo.) at 4° C. for 10 minutes with shaking.
(§3) Cellular levels of phospho-Serine 318 ATG13 (pATG13) were measured via an ELISA method. Total ATG13 Antibody (Cell Signaling Cat #13273) was used to coat the wells. The plate was incubated at 4° C. overnight and washed with ELISA wash buffer (Biolegend Cat #421601). The wells were then blocked with assay diluent (Biolegend Cat #421203) for 1 hour at room temperature. Plate wells were washed with ELISA wash buffer. Cell lysate was added to wells and incubated at room temperature for 2 hours. Plate wells were washed with ELISA wash buffer. Biotinylated pS318-ATG13 antibody (Rockland Immunochemicals Cat #600-401-C49) was diluted in assay diluent and added to each well and incubated at room temperature for 1 hour. Plate wells were washed with ELISA wash buffer. Streptavidin linked to horseradish peroxidase (Thermo Fisher Cat #21140) was diluted in assay diluent and added to each well and incubated at room temperature for 1 hour. Plate wells were washed with ELISA wash buffer. High sensitivity TMB substrate (Biolegend Cat #421101) was added to each well and incubated at room temperature for 20 minutes. The reaction was stopped with 2N Sulfuric Acid. The plate was analyzed at on a plate reader measuring absorbance at 450 nm and 540 nm (background). Signal was calculated by first subtracting the background absorbance at 540 nm from the absorbance at 450 nm for each well. Next, the background corrected absorbance at 450 nm from blank wells was subtracted from test wells. Data was compared to control wells to determine % ATG13 phosphorylation. GraphPad Prism was used to calculate IC50 values.
For orientation: An ELISA detects its analyte on a solid surface through an enzyme-linked reagent.

Assay [4] deals with ULK kinase substrate ATG13 (phospho-Serine 318 ATG13) in MiaPaCa-2 cells. The assay is described as follows: pATG13 ELISA in mutant KRas MiaPaCa-2 cells in combination with trametinib. The format is cell-based. The note with it: MiaPaCa-2 human pancreatic cancer cells, with 250 nM trametinib, overnight. The procedure:
as §2, with “MiaPaCa-2” for “A549 (KRAS mutant)”, “pancreatic” for “lung”, “(10000” for “(6,000”, “G,” for “G, and”, “streptomycin, and 2.5% Horse Serum” for “streptomycin”
as §3

Assay [5] concerns the target T3, ULK1 kinase (Homo sapiens, UniProt O75385, E37A/K38A).
T3 construct: (residues 1-283; ID NO: 2); purchased Beryllium
T3 sequence (O75385 1-283 E37A/K38A): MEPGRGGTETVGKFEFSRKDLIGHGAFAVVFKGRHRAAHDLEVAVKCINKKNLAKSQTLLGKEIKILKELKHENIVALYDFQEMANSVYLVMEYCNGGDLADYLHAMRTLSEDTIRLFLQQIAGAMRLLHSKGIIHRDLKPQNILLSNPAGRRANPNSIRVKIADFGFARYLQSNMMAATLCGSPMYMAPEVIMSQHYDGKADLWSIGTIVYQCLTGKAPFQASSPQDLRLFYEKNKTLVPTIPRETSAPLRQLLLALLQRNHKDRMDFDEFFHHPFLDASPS
The assay is described as follows: Biochemical assay for ULK1.3 (coupled pyruvate kinase/lactate dehydrogenase assay). The note with it: 0.1 nM ULK1 (residues 1-283), peptide substrate, 1 mM ATP. The procedure: Activity of ULK1 kinase was determined spectroscopically using a coupled pyruvate kinase/lactate dehydrogenase assay that continuously monitors the ATP hydrolysis-dependent oxidation of NADH (e.g., Schindler et al. Science (2000) 289: 1938-1942). Assays were conducted in 384-well plates (100 uL final volume) using 0.1 nM ULK1 (from Beryllium), 0.075 mM peptide substrate (YANWLAASIYLDGKKK (SEQ ID NO: 5)), 1.5 units pyruvate kinase, 2.1 units lactate dehydrogenase, 1 mM phosphoenol pyruvate, 0.28 mM NADH and 1 mM ATP in assay buffer (100 mM Tris, pH 7.5, 15 mM MgCl2, 0.5 mM DTT, 0.004% (w/v) BSA, and 0.004% Triton X-100). Inhibition of ULK1 was measured by adding serial diluted test compound (final assay concentration of 1% DMSO). A decrease in absorption at 340 nm was monitored continuously for 6 hours at 30° C. on a multi-mode microplate reader (BioTek). The reaction rate was calculated using the 2-3 h time frame. The reaction rate at each concentration of compound was converted to percent inhibition using controls (i.e. reaction with no test compound and reaction with a known inhibitor) and IC50 values were calculated using software routines in Prism (GraphPad software).

Assay [6] deals with T4, LRRK2 kinase (Homo sapiens, UniProt Q5S007).
T4 construct: (residues 970-2528; ID NO; 4); purchased Thermo Fisher
The assay is described as follows: Biochemical assay for LRRK2 (coupled pyruvate kinase/lactate dehydrogenase assay). As to conditions: 26.4 nM LRRK2 (residues 970-2528), peptide substrate, 1 mM ATP. The procedure: Activity of LRRK2 kinase was determined spectroscopically using a coupled pyruvate kinase/lactate dehydrogenase assay that continuously monitors the ATP hydrolysis-dependent oxidation of NADH (e.g., Schindler et al. Science (2000) 289: 1938-1942). Assays were conducted in 384-well plates (100 uL final volume) using 26.4 nM LRRK2 (Thermo Fisher), 0.1 mM peptide substrate (RLGRDKYKTLRQIRQ (SEQ ID NO: 6)), 1.5 units pyruvate kinase, 2.1 units lactate dehydrogenase, 1 mM phosphoenol pyruvate, 0.28 mM NADH and 1 mM ATP in assay buffer (100 mM Tris, pH 7.5, 15 mM MgCl2, 0.5 mM DTT, 0.004% (w/v) BSA, and 0.004% Triton X-100). Inhibition of LRRK2 was measured by adding serial diluted test compound (final assay concentration of 1% DMSO). A decrease in absorption at 340 nm was monitored continuously for 6 hours at 30° C. on a multi-mode microplate reader (BioTek). The reaction rate was calculated using the 2-3 h time frame. The reaction rate at each concentration of compound was converted to percent inhibition using controls (i.e. reaction with no test compound and reaction with a known inhibitor) and IC50 values were calculated using software routines in Prism (GraphPad software).

T4 sequence (Q5S007 with tags, fused parts or gaps): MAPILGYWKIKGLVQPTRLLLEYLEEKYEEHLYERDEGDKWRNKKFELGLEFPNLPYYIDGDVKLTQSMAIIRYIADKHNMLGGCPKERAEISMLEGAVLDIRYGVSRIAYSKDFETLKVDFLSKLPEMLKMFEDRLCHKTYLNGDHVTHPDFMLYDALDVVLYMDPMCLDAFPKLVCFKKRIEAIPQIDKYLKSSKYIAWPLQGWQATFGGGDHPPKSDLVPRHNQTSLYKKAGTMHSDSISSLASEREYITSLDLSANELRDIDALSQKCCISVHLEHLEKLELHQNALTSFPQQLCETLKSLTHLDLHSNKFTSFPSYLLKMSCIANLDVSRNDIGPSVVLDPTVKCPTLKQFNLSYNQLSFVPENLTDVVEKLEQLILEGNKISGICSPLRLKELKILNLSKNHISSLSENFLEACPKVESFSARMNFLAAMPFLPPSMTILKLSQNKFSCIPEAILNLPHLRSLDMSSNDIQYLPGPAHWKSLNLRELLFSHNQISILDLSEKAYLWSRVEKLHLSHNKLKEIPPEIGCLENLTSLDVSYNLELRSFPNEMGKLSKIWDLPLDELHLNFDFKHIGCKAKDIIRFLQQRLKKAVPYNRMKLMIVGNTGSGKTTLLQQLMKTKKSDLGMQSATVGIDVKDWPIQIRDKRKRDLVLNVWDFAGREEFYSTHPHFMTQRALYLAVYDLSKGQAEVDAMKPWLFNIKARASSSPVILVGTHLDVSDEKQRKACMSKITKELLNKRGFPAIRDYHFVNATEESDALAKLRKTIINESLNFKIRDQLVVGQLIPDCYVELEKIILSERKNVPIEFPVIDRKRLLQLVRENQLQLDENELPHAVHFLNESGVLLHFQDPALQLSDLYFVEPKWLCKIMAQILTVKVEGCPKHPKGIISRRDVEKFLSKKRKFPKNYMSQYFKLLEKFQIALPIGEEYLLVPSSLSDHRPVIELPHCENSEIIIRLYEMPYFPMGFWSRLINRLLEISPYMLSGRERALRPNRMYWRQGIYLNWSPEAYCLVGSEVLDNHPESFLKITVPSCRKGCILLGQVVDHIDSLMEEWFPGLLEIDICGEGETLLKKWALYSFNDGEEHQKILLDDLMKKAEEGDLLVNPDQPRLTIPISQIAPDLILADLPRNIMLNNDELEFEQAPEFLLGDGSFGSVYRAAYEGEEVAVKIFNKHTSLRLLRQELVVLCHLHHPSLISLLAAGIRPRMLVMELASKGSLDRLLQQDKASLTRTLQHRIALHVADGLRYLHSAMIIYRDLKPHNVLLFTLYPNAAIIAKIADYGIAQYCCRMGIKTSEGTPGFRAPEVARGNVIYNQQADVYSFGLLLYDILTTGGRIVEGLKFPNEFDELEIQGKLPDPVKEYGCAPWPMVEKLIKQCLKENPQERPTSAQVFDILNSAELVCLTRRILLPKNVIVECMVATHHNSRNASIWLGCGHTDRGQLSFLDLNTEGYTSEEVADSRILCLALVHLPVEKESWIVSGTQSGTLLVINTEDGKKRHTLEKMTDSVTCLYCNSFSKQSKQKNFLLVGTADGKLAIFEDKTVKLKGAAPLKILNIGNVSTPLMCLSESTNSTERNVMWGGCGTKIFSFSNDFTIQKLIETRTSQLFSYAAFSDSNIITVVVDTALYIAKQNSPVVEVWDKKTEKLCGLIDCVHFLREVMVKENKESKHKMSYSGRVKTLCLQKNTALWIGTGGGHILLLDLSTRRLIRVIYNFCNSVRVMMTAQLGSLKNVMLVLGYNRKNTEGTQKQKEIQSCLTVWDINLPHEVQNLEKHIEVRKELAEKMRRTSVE
T2 sequence (Q8IYT8 with tags, fused parts or gaps): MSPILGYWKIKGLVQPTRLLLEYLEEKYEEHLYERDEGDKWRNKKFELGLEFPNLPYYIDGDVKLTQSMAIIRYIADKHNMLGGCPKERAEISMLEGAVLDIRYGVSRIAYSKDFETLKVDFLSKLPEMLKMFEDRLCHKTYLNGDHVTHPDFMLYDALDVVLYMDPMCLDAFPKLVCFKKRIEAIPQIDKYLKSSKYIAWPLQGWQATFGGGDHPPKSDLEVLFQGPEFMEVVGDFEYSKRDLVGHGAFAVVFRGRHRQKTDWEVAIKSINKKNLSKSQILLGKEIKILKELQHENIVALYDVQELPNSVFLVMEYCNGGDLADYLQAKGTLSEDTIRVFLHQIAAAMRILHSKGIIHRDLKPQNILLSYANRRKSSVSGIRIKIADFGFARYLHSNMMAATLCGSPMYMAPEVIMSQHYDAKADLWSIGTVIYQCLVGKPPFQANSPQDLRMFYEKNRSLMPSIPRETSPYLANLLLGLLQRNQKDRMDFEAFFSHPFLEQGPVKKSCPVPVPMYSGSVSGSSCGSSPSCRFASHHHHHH

For the compound `CCc1cc(N2CCN(C)CC2)ccc1Nc1ncc(C(F)(F)F)c(NCCCNC(=O)C2CCC2)n1` [Example 1, N-(3-((2-((2-ethyl-4-(4-methylpiperazin-1-yl)phenyl)amino)-5-(trifluoromethyl)pyrimidin-4-yl)amino)propyl)cyclobutanecarboxamide], the IC50 in assay [1] was in the range of 1 to 25 nM; in assay [2], 25 to 100 nM; in assay [3], 100 to 300 nM; in assay [4] it was 10 to 100 nM.
For the compound `CCc1cc(N2CCN(C)CC2)ccc1Nc1ncc(Br)c(NCCCNC(=O)C2CCC2)n1` [Example 7], the IC50 was in the range of 25 to 100 nM in assay [5], 100 to 500 nM in assay [2] and 100 to 300 nM in assay [6].
The corresponding values for `CN1CCN(c2ccc(Nc3ncc(Br)c(NCCCNC(=O)C4CCC4)n3)c(C3CC3)c2)CC1` [Example 9] are 25 to 100 nM, 100 to 500 nM and 100 to 300 nM.
On to `CC(C)Oc1cc(N2CCN(C)CC2)ccc1Nc1ncc(Cl)c(NCCCNC(=O)C2CCC2)n1` [Example 10], for which the IC50 in assay [5] fell in the range of 500 to 20000 nM; in assay [2], 500 to 20000 nM; in assay [6] it was 100 to 300 nM.
Consider `CCc1cc(N2CCN(C)CC2)ccc1Nc1ncc(C2CC2)c(NCCCNC(=O)C2CCC2)n1` [Example 19], for which the IC50 was in the range of 500 to 20000 nM in assay [5], 500 to 20000 nM in assay [2] and 600 to 20000 nM in assay [6].
With `Cc1nn(C(C)(C)C(N)=O)cc1Nc1ncc(C(F)(F)F)c(NCCCNC(=O)C2CCC2)n1` [Example 26, N-(3-((2-((1-(1-amino-2-methyl-1-oxopropan-2-yl)-3-methyl-1H-pyrazol-4-yl)amino)-5-(trifluoromethyl)pyrimidin-4-yl)amino)propyl)cyclobutanecarboxamide], the results for the IC50 in assay [5], in assay [2] and in assay [6] were 500 to 20000 nM, 500 to 20000 nM and 1 to 100 nM, respectively.
In the case of `Cc1nn(C(C)(C)C#N)cc1Nc1ncc(C(F)(F)F)c(NCCCNC(=O)C2CCC2)n1` [Example 30, N-(3-((2-((1-(2-cyanopropan-2-yl)-3-methyl-1H-pyrazol-4-yl)amino)-5-(trifluoromethyl)pyrimidin-4-yl)amino)propyl)cyclobutanecarboxamide], the IC50 in assay [5] lay in the range of 100 to 500 nM; in assay [2], 500 to 20000 nM; in assay [6], 1 to 100 nM.
